Results as given in ChEMBL document CHEMBL2203140, “Syntheses and structure-activity relationship studies of N-substituted-β-D-glucosaminides as selective cytotoxic agents” (Bioorg Med Chem Lett, 2012).

How the values were obtained:
Type in all cases: functional, cell-based
[1] = tested on: HT-1080; assay: Cytotoxicity against human HT1080 cells after 48 hrs by MTT assay; details: HT-1080, 48 h
[2] = tested on: HCT-116; assay: Cytotoxicity against human HCT116 cells after 48 hrs by MTT assay; details: HCT-116, 48 h
[3] = tested on: MCF7; assay: Cytotoxicity against human MCF7 cells after 48 hrs by MTT assay; details: MCF7, 48 h
[4] = tested on: HepG2; assay: Cytotoxicity against human HepG2 cells after 48 hrs by MTT assay; details: HepG2, 48 h
[5] = tested on: A549; assay: Cytotoxicity against human A549 cells after 48 hrs by MTT assay; details: A549, 48 h
[6] = tested on: HeLa; assay: Cytotoxicity against human HeLa cells after 48 hrs by MTT assay

Row | SMILES | IC50 [1] | IC50 [2] | IC50 [3] | IC50 [4] | IC50 [5] | IC50 [6]
1 | C[C@@H]1CC[C@@]2(OC1)O[C@H]1C[C@H]3[C@@H]4CC=C5C[C@@H](O[C@@H]6O[C@H](CO)[C@@H](O)[C@H](O)[C@H]6NC(=O)/C=C/c6ccccc6)CC[C@]5(C)[C@H]4CC[C@]3(C)[C@H]1[C@@H]2C | 29.8 µM | 39.1 µM | 16 µM | 36.3 µM | 41.8 µM | 12.8 µM
2 | C[C@@H]1CC[C@@]2(OC1)O[C@H]1C[C@H]3[C@@H]4CC=C5C[C@@H](O[C@@H]6O[C@H](CO)[C@@H](O)[C@H](O)[C@H]6NC(=O)/C=C/c6ccc(F)cc6)CC[C@]5(C)[C@H]4CC[C@]3(C)[C@H]1[C@@H]2C | 34.9 µM | 35 µM | 21.2 µM | 39.8 µM | 33.8 µM | 26.9 µM
3 | Cc1ccc(/C=C/C(=O)N[C@H]2[C@H](O[C@H]3CC[C@@]4(C)C(=CC[C@H]5[C@@H]6C[C@@H]7O[C@]8(CC[C@@H](C)CO8)[C@@H](C)[C@@H]7[C@@]6(C)CC[C@@H]54)C3)O[C@H](CO)[C@@H](O)[C@@H]2O)cc1 | 23.5 µM | 40.4 µM | 5.3 µM | 35.5 µM | 41.6 µM | 6.5 µM
4 | COc1ccccc1/C=C/C(=O)N[C@H]1[C@H](O[C@H]2CC[C@@]3(C)C(=CC[C@H]4[C@@H]5C[C@@H]6O[C@]7(CC[C@@H](C)CO7)[C@@H](C)[C@@H]6[C@@]5(C)CC[C@@H]43)C2)O[C@H](CO)[C@@H](O)[C@@H]1O | 4.3 µM | 38.9 µM | 23.1 µM | 29.5 µM | 23.1 µM | 27.5 µM
5 | COc1cccc(/C=C/C(=O)N[C@H]2[C@H](O[C@H]3CC[C@@]4(C)C(=CC[C@H]5[C@@H]6C[C@@H]7O[C@]8(CC[C@@H](C)CO8)[C@@H](C)[C@@H]7[C@@]6(C)CC[C@@H]54)C3)O[C@H](CO)[C@@H](O)[C@@H]2O)c1 | 26.6 µM | > 50 µM | 24.1 µM | > 50 µM | 26.9 µM | 27 µM
6 | COc1ccc(/C=C/C(=O)N[C@H]2[C@H](O[C@H]3CC[C@@]4(C)C(=CC[C@H]5[C@@H]6C[C@@H]7O[C@]8(CC[C@@H](C)CO8)[C@@H](C)[C@@H]7[C@@]6(C)CC[C@@H]54)C3)O[C@H](CO)[C@@H](O)[C@@H]2O)cc1 | 3.5 µM | 29.5 µM | 0.5 µM | 30.7 µM | 24.4 µM | 6.1 µM
7 | COc1cccc(/C=C/C(=O)N[C@H]2[C@H](O[C@H]3CC[C@@]4(C)C(=CC[C@H]5[C@@H]6C[C@@H]7O[C@]8(CC[C@@H](C)CO8)[C@@H](C)[C@@H]7[C@@]6(C)CC[C@@H]54)C3)O[C@H](CO)[C@@H](O)[C@@H]2O)c1OC | 21.2 µM | 47.4 µM | 44.4 µM | 45.6 µM | 43.4 µM | 36.2 µM
8 | COc1ccc(/C=C/C(=O)N[C@H]2[C@H](O[C@H]3CC[C@@]4(C)C(=CC[C@H]5[C@@H]6C[C@@H]7O[C@]8(CC[C@@H](C)CO8)[C@@H](C)[C@@H]7[C@@]6(C)CC[C@@H]54)C3)O[C@H](CO)[C@@H](O)[C@@H]2O)c(OC)c1 | 5.8 µM | 42.9 µM | 26.7 µM | 41.3 µM | 27.1 µM | 22.3 µM
